This note sets out measurements from patent publication US12358918B2, “Aryl hydrocarbon receptor (AHR) activator compounds as cancer therapeutics” (THE BROAD INSTITUTE, INC., priority 2018, dated 2025).

Structures are written as SMILES.

The subject of data set [1] is MDA-MB-468 and ZR51 breast cancer and JHH7 liver cancer cell lines. In words: 5 day cytotoxicity, control cells vs sgRNA knock out of AHR. The note with it: cytotoxicity in control cells compared with AHR sgRNA knock out cells; FIGS. 23 and 24.
Data set [2] has as its system MDA-MB-231 breast cancer cell lines. The data set is described as follows: cytotoxicity, control cells vs cells overexpressing CYP1A1. In kind it is cell-based. The settings on record: control MDA-MB-231 compared with cells overexpressing CYP1A1. The source says:
The dependence of each compound's cytotoxic effects upon CYP1A1 was also examined, via screening of MDA-MB-231 breast cancer cell lines for cytotoxic response. The CYP1A1-dependence of the cytotoxic response of to each tested compound was specifically determined by comparing the cytotoxicity of each compound administered to control cells with that of the compound administered to corresponding cells that overexpressed CYP1A1. […]

The subject of data set [3] is ZR75, MDA-MB-468 and HCC1395 cell lines. The data set is described as follows: cytotoxicity of CGS-15943 analogs in sensitive and resistant cell lines. In kind it is cell-based. The note with it: IC50 tables of FIGS. 8A to 8D. The text has this: Biological replicates were averaged and normalized to vehicle control. Dose curves were generated using Graphpad Prism.

The test system of data set [4] is ZR-75-1 breast cancer cells. The data set is described as follows: Synergy/antagonism testing. In kind it is cell-based. The note with it: co-treatment with CGS-15943, 120H; FIG. 14. As for the experimental part:
1000 cells per well were seeded in 384 well clear bottom tissue culture plates and incubated overnight at 37° C. and 4% CO2. The following day, compounds were dispensed in a combination grid format using the Tecan Digital Dispenser. Plates were incubated for 5 days and then viability was assayed using CellTiter-Glo® Cellular Viability Assay. Analysis and Synergy plots were generated using the publicly available Combenefit software package.
AHR has been previously described to bind a range of endogenous and exogenous aromatic ligands (Denison et al. Tox. Sci. 2004, see Table 2), resulting in the formation of a nuclear heterodimer with ARNT. The dimer then binds dioxin-responsive elements and drives gene expression, after nuclear translocation. AHR has been described to bind a wide range of aromatic substrates including agonists, antagonists, and modulators.

With `Cc1ccc2cc3c(ccc4ccccc43)c3c2c1CC3` [3-Methylcholanthrene, reference compound], the “AHR-dependence of the cytotoxic response” value in data set [1] is on record as “dependence upon AHR”. The “CYP1A1-dependence of the cytotoxic response” value in data set [2] was “CYP1A1-dependent cytotoxic”. Regarding `Nc1nc2c(cnn2CCc2ccccc2)c2nc(-c3ccco3)nn12` [BRD-K81225797-001-02-3], the “killing of sensitive (ZR75, MDA-MB-468) versus resistant (HCC1395) cell lines” value in data set [3] is “selective killing”. `COc1ccc(-c2cc(=O)c3cc(OC)ccc3o2)c(OC)c1`: the “interaction with CGS-15943 (3D Synergy plot)” value in data set [4] was “pronounced antagonism to CGS-15943”.
